Measurements published in patent US11691969B2, “Pyridazinones as PARP7 inhibtors” (Ribon Therapeutics, Inc., priority 2019, dated 2023).
pIC50: −log10 of the molar value.

The molecules below were run against PARP7 (Homo sapiens (Human), UniProt Q7Z3E1) (assay: TR-FRET assay: displacement of biotinylated Probe A from the TIPARP active site (Enzymatic Assay for Inhibition of PARP7)). Conditions: TIPARP 6 nM, Probe A 2 nM, 25° C.
Type: binding
Method: Example A. Enzymatic Assay for Inhibition of PARP7
Displacement of Probe A, a biotinylated probe binding to the TIPARP active site, was measured using a time-resolved fluorescence energy transfer (TR-FRET) assay. 20 nL of a dose response curve of each test compound was spotted in black 384-well polystyrene proxiplates (Perkin Elmer) using a Mosquito (TTP Labtech). Reactions were performed in a 8 μl volume by adding 6 μL of TIPARP and Probe A in assay buffer (20 mM HEPES pH=8, 100 mM NaCl, 0.1% bovine serum albumin, 2 mM DTT and 0.002% Tween20), incubating with test compound at 25° C. for 30 min, then adding 2 μL of ULight-anti 6×His and LANCE Eu-W1024 labeled streptavidin (Perkin Elmer). The final concentrations of TIPARP and Probe A were 6 nM and 2 nM, respectively. The final concentration of ULight-anti 6×His and LANCE Eu-W1024 labeled streptavidin were 4 nM and 0.25 nM, respectively. Reactions were incubated at 25° C. for an additional 30 min, then read on an Envision platereader equipped with a LANCE/DELFIA top mirror (Perkin Elmer) using excitation of 320 nm and emission of 615 nm and […] with a […]. The ratio of the 665/615 nm emission were calculated for each well to determine the amount of complex of TIPARP and Probe Ain each well. Control wells containing a negative control of 0.25% DMSO vehicle or a positive control of 100 μM 5-(5-(piperidin-4-yloxy)isoindolin-2-yl)-4-(trifluoromethyl)pyridazin-3(2H)-one were used to calculate the % inhibition as described below:
[formula] where TRFcmpd is the TR-FRET ratio from the compound treated well, TRFmin is the TR-FRET ratio from the 5-(5-(piperidin-4-yloxy)isoindolin-2-yl)-4-(trifluoromethyl)pyridazin-3(2H)-one—treated positive control well and TRFmax is the TR-FRET ratio from the DMSO-treated negative control well. The % inhibition values were plotted as a function of compound concentration and the following 4-parameter fit was applied to derive the IC50 values:
[formula] where top and bottom are normally allowed to float, but may be fixed at 100 or 0 respectively in a 3-parameter fit. The Hill Coefficient is normally allowed to float but may also be fixed at 1 in a 3-parameter fit. Y is the % inhibition and X is the compound concentration. Synthesis of Probe A

PARP7, sequence (Q7Z3E1 whole entry): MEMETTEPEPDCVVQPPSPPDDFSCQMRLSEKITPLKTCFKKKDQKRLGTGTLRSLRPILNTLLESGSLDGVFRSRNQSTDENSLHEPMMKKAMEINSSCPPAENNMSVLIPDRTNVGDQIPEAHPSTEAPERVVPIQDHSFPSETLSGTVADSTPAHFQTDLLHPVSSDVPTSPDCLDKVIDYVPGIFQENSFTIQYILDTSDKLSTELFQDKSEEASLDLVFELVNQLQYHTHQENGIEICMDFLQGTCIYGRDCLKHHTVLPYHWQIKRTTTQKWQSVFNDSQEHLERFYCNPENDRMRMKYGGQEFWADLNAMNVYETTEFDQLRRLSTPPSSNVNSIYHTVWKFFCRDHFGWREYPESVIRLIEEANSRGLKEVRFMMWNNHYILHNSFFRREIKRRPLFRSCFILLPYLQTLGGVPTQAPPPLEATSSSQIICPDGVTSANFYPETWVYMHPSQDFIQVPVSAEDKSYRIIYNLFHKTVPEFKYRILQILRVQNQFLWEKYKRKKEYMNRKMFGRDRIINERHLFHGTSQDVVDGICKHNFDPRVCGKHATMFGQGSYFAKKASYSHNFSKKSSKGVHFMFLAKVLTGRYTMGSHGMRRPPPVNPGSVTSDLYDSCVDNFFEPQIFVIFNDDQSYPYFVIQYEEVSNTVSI

Row | pIC50 | Compound
1 | ≤ 6.00 | C[C@@H](CN[C@H]1CCN(C2CCN(c3ncc(C(F)(F)F)cn3)CC2)C1=O)Nc1cn[nH]c(=O)c1C(F)(F)F (single isomer, unassigned) [Example 26A]
2 | ≤ 6.00 | C[C@H](CN[C@H]1CCN(C2CCN(c3ncc(C(F)(F)F)cn3)CC2)C1=O)Nc1cn[nH]c(=O)c1C(F)(F)F (single isomer, unassigned) [Example 26C]
3 | 6.00 to 7.00 | C[C@H](CN[C@@H]1CCN(C2CCN(c3ncc(C(F)(F)F)cn3)CC2)C1=O)Nc1cn[nH]c(=O)c1C(F)(F)F (single isomer, unassigned) [Example 26D]
4 | > 7.00 | C[C@@H](COCC(=O)N[C@@H]1CCN(c2ncc(C(F)(F)F)cn2)C[C@H]1O)Nc1cn[nH]c(=O)c1C(F)(F)F (single isomer, unassigned) [Example 33A]
5 | > 7.00 | C[C@@H](COCC(=O)N[C@H]1CCN(c2ncc(C(F)(F)F)cn2)C[C@@H]1O)Nc1cn[nH]c(=O)c1C(F)(F)F (single isomer, unassigned) [Example 33B]
6 | > 7.00 | C[C@@H](CO[C@@H]1CCN([C@@H]2CCN(c3ncc(C(F)(F)F)cn3)C[C@H]2F)C1=O)Nc1cn[nH]c(=O)c1C(F)(F)F (single isomer, unassigned) [Example 38A]
7 | > 7.00 | C[C@@H](CO[C@@H]1CCN([C@H]2CCN(c3ncc(C(F)(F)F)cn3)C[C@@H]2F)C1=O)Nc1cn[nH]c(=O)c1C(F)(F)F (single isomer, unassigned) [Example 38B]
8 | > 7.00 | C[C@@H](CO[C@@H]1CCN([C@@H]2CCN(c3ncc(C(F)(F)F)cn3)C[C@@H]2F)C1=O)Nc1cn[nH]c(=O)c1C(F)(F)F (single isomer, unassigned) [Example 39A]
9 | > 7.00 | C[C@@H](CO[C@@H]1CCN([C@H]2CCN(c3ncc(C(F)(F)F)cn3)C[C@H]2F)C1=O)Nc1cn[nH]c(=O)c1C(F)(F)F (single isomer, unassigned) [Example 39B]
10 | > 7.00 | C[C@@H](CO[C@@H]1CCN([C@@H]2CCN(c3ccc(C#N)cn3)CC2(F)F)C1=O)Nc1cn[nH]c(=O)c1C(F)(F)F (single isomer, unassigned) [Example 40A]
11 | > 7.00 | C[C@@H](CO[C@@H]1CCN([C@H]2CCN(c3ccc(C#N)cn3)CC2(F)F)C1=O)Nc1cn[nH]c(=O)c1C(F)(F)F (single isomer, unassigned) [Example 40B]
12 | 6.00 to 7.00 | C[C@@H](CO[C@H]1CCN(C2CCN(c3ncc(C(F)(F)F)cn3)CC2)C1=O)Nc1cn[nH]c(=O)c1C(F)(F)F [Example 10A, 5-((S)-1-((S)-1-(1-(5-(trifluoromethyl)pyrimidin-2-yl)piperidin-4-yl)-2-oxopyrrolidin-3-yloxy)propan-2-ylamino)-4-(trifluoromethyl)pyridazin-3(2H)-one]
13 | > 7.00 | C[C@@H](CO[C@@H]1CCN(C2CCN(c3ncc(C(F)(F)F)cn3)CC2)C1=O)Nc1cn[nH]c(=O)c1C(F)(F)F [Example 10B, 5-((S)-1-((R)-1-(1-(5-(trifluoromethyl)pyrimidin-2-yl)piperidin-4-yl)-2-oxopyrrolidin-3-yloxy)propan-2-ylamino)-4-(trifluoromethyl)pyridazin-3(2H)-one]
14 | 6.00 to 7.00 | C[C@@H](CO[C@H]1CCN(C2CCN(c3cnc(C(F)(F)F)cn3)CC2)C1=O)Nc1cn[nH]c(=O)c1C(F)(F)F [Example 13A, 5-(((S)-1-(((S)-2-oxo-1-(1-(5-(trifluoromethyl)pyrazin-2-yl)piperidin-4-yl)pyrrolidin-3-yl)oxy)propan-2-yl)amino)-4-(trifluoromethyl)pyridazin-3(2H)-one]
15 | > 7.00 | C[C@@H](CO[C@@H]1CCN(C2CCN(c3cnc(C(F)(F)F)cn3)CC2)C1=O)Nc1cn[nH]c(=O)c1C(F)(F)F [Example 13B, 5-(((S)-1-(((R)-2-oxo-1-(1-(5-(trifluoromethyl)pyrazin-2-yl)piperidin-4-yl)pyrrolidin-3-yl)oxy)propan-2-yl)amino)-4-(trifluoromethyl)pyridazin-3(2H)-one]
16 | ≤ 6.00 | C[C@@H](CO[C@H]1CCN(C2CCN(c3ccc(C#N)cn3)CC2)C1=O)Nc1cn[nH]c(=O)c1C(F)(F)F [Example 14A, 6-(4-((S)-2-oxo-3-((S)-2-((6-oxo-5-(trifluoromethyl)-1,6-dihydropyridazin-4-yl)amino)propoxy)pyrrolidin-1-yl)piperidin-1-yl)nicotinonitrile]

Second part, the molecule before the results:

Row | Compound | pIC50
17 | C[C@@H](COCC(=O)NC1CCN(c2ncc(C(F)(F)F)cn2)CC1)Nc1cn[nH]c(=O)c1C(F)(F)F [Example 1, (S)-2-(2-(6-oxo-5-(trifluoromethyl)-1,6-dihydropyridazin-4-ylamino)propoxy)-N-(1-(5-(trifluoromethyl)pyrimidin-2-yl)piperidin-4-yl)acetamide] | > 7.00
18 | C[C@@H](COCC(=O)N(C)C1CCN(c2ncc(C(F)(F)F)cn2)CC1)Nc1cn[nH]c(=O)c1C(F)(F)F [Example 2, (S)—N-methyl-2-(2-(6-oxo-5-(trifluoromethyl)-1,6-dihydropyridazin-4-ylamino)propoxy)-N-(1-(5-(trifluoromethyl)pyrimidin-2-yl)piperidin-4-yl)acetamide] | > 7.00
19 | C[C@@H](COCC(=O)N(C)C1CCN(c2ncc(C(F)(F)F)s2)CC1)Nc1cn[nH]c(=O)c1C(F)(F)F [Example 3, (S)—N-methyl-2-(2-((6-oxo-5-(trifluoromethyl)-1,6-dihydropyridazin-4-yl)amino)propoxy)-N-(1-(5-(trifluoromethyl)thiazol-2-yl)piperidin-4-yl)acetamide] | > 7.00
20 | C[C@@H](COCC(=O)N(C)C1CCN(c2cnc(C(F)(F)F)cn2)CC1)Nc1cn[nH]c(=O)c1C(F)(F)F [Example 4, (S)—N-methyl-2-(2-(6-oxo-5-(trifluoromethyl)-1,6-dihydropyridazin-4-ylamino)propoxy)-N-(1-(5-(trifluoromethyl)pyrazin-2-yl)piperidin-4-yl)acetamide] | > 7.00
21 | C[C@@H](COCC(=O)N(C)C1CN(c2ncc(C(F)(F)F)cn2)C1)Nc1cn[nH]c(=O)c1C(F)(F)F [Example 5, (S)—N-methyl-2-(2-(6-oxo-5-(trifluoromethyl)-1,6-dihydropyridazin-4-ylamino)propoxy)-N-(1-(5-(trifluoromethyl)pyrimidin-2-yl)azetidin-3-yl)acetamide] | > 7.00
22 | C[C@@H](COCC(=O)N(C)C1CCN(c2ccc(C#N)cn2)CC1)Nc1cn[nH]c(=O)c1C(F)(F)F [Example 6, (S)—N-(1-(5-cyanopyridin-2-yl)piperidin-4-yl)-N-methyl-2-(2-((6-oxo-5-(trifluoromethyl)-1,6-dihydropyridazin-4-yl)amino)propoxy)acetamide] | > 7.00
23 | CCN(C(=O)COC[C@H](C)Nc1cn[nH]c(=O)c1C(F)(F)F)C1CCN(c2ncc(C(F)(F)F)cn2)CC1 [Example 7, (S)—N-ethyl-2-(2-((6-oxo-5-(trifluoromethyl)-1,6-dihydropyridazin-4-yl)amino)propoxy)-N-(1-(5-(trifluoromethyl)pyrimidin-2-yl)piperidin-4-yl)acetamide] | > 7.00
24 | CN(C(=O)COC[C@@H]1CCN1c1cn[nH]c(=O)c1C(F)(F)F)C1CCN(c2ncc(C(F)(F)F)cn2)CC1 [Example 8, (S)—N-methyl-2-((1-(6-oxo-5-(trifluoromethyl)-1,6-dihydropyridazin-4-yl)azetidin-2-yl)methoxy)-N-(1-(5-(trifluoromethyl)pyrimidin-2-yl)piperidin-4-yl)acetamide] | > 7.00
25 | COC[C@@H](COCC(=O)N(C)C1CCN(c2ncc(C(F)(F)F)cn2)CC1)Nc1cn[nH]c(=O)c1C(F)(F)F [Example 9, (S)-2-(3-methoxy-2-((6-oxo-5-(trifluoromethyl)-1,6-dihydropyridazin-4-yl)amino)propoxy)-N-methyl-N-(1-(5-(trifluoromethyl)pyrimidin-2-yl)piperidin-4-yl)acetamide] | > 7.00
26 | C[C@@H](COC1CCN(C2CCN(c3ncc(C(F)(F)F)cn3)CC2)C1=O)Nc1cn[nH]c(=O)c1Cl (stereo partly drawn) [Example 11, 4-chloro-5-((S)-1-(2-oxo-1-(1-(5-(trifluoromethyl)pyrimidin-2-yl)piperidin-4-yl)pyrrolidin-3-yloxy)propan-2-ylamino)pyridazin-3(2H)-one] | > 7.00
27 | C[C@@H](COC1CCN(C2CCN(c3cnc(C(F)(F)F)cn3)CC2)C1=O)Nc1cn[nH]c(=O)c1Br (stereo partly drawn) [Example 12, 4-bromo-5-(((2S)-1-((2-oxo-1-(1-(5-(trifluoromethyl)pyrazin-2-yl)piperidin-4-yl)pyrrolidin-3-yl)oxy)propan-2-yl)amino)pyridazin-3(2H)-one] | > 7.00
